Results published in PMC9820345, “Metal Complexes of a 5-Nitro-8-Hydroxyquinoline-Proline Hybrid with Enhanced Water Solubility Targeting Multidrug Resistant Cancer Cells” (International Journal of Molecular Sciences, 2022).
Read-outs that look alike come from different tables or passages of the source.

What was measured:
HSA = molecular target: T1, HSA (Homo sapiens, UniProt P02768); assay: Time course of complex-HSA interaction (UV-vis); assay type: binding; settings: complex–HSA (1:1 or 2:1); pH 7.4
T1 construct: purchased Sigma-Aldrich (Darmstadt, Germany) A8763
T1 sequence (P02768 25-609): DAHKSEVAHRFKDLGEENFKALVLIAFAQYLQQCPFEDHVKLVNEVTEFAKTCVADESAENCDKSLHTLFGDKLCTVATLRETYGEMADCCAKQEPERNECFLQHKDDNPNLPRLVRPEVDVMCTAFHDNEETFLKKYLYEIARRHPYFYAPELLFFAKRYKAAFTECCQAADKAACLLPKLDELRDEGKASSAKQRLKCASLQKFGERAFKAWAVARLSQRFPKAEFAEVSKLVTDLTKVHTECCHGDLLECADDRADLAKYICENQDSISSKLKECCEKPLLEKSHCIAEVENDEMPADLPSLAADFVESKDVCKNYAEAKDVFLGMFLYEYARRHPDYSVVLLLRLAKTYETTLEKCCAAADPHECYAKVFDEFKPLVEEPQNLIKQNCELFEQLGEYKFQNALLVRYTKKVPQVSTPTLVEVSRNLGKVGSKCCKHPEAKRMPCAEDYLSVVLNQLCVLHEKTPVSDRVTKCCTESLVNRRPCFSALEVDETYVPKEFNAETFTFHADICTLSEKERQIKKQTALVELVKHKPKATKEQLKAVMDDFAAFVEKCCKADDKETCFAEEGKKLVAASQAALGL
Description: First, changes in the UV-vis spectra were followed in time in the complex—HSA (1:1 or 2:1) system, and it was concluded that the equilibrium can be reached within ca. 30 min for the RhCp* complex (Figure S25). […] The binding of the RuCym complex to HSA without the release of the bidentate ligand was also confirmed by CZE measurement (Figure S27). Most likely a donor atom of the protein binds at the coordination site of the co-ligand.
An Agilent Cary 8454 diode array spectrophotometer (Santa Clara, CA, USA) was used to obtain UV-vis spectra in the wavelength range 200–1000 nm, while spectra were recorded for the Fe(II)-containing samples using an Avantes (Avantes B.V., Apeldoorn, The Nederlands) AvaSpec-ULS2048CL-EVO spectrometer with an AvaLight-DHc light source and FDP-7UVIR200-2-VAR transmission dip probe. The titrations for the Fe(II)-containing samples were performed in a laboratory glove box (GP(Campus), Jacomex) (O2 content ≤ 1 ppm). The path length (ℓ) was 1 cm in most cases (the actual ℓ is always indicated in the legends of the figures). The concentrations of the ligands and complexes were between 40 and 200 µM, and 0.2 M KNO3 for the organometallic complexes or 0.1 M KCl for the Fe(II/III), Cu(II), and Zn(II) complexes were used to adjust the constant ionic strength. […]

[1] = Proton dissociation constants (pKa) of the ligand by pH-potentiometric, UV-vis and 1H NMR titrations; assay type: physicochemical; settings: for pKa: 25.0 °C
Description: Characterization of the protonation/deprotonation equilibrium processes of a bioactive molecule is important to reveal its actual chemical form and charge at a given pH. The proton dissociation constant (Ka) is a key physico-chemical parameter since it has an impact on many biopharmaceutical characteristics such as lipophilicity, water solubility, and albumin binding, which in turn directly influences pharmacokinetics. The pKa values of the protonated HQNO2-L-Pro were determined by pH-potentiometric, UV-vis (Figure 1a), and ^1H NMR spectroscopic titrations (Table 1).
The pH-potentiometric measurements were carried out at 25.0 ± 0.1 °C in water in the pH range between 2.0 and 11.5 at a constant ionic strength of 0.2 M KNO3. The titrations were performed in a carbonate-free KOH solution (0.20 or 0.10 M). The exact concentrations of HNO3, HCl, and KOH solutions were always determined by pH-potentiometric titrations. An Orion 710A pH-meter equipped with a Metrohm combined electrode (type 6.0234.100) and a Metrohm 665 Dosimat burette were used for the measurements. […] The average water ionization constant (pKw) was determined as 13.76 ± 0.01, which is in good agreement with the literature data. In the case of the titrations in 30% (v/v) DMSO/H2O, the calibration of the pH-potentiometric system was conducted as in our former works. Samples were degassed by bubbling purified argon through them for about 10 min prior to the measurements, and the inert gas was also passed over the solutions during the titrations. Stoichiometry of the species and their equilibrium constants were obtained similarly to that performed in our previous works, with the use of computer program Hyperquad2013 [50].
(§1) An Agilent Cary 8454 diode array spectrophotometer (Santa Clara, CA, USA) was used to obtain UV-vis spectra in the wavelength range 200–1000 nm, while spectra were recorded for the Fe(II)-containing samples using an Avantes (Avantes B.V., Apeldoorn, The Nederlands) AvaSpec-ULS2048CL-EVO spectrometer with an AvaLight-DHc light source and FDP-7UVIR200-2-VAR transmission dip probe. The titrations for the Fe(II)-containing samples were performed in a laboratory glove box (GP(Campus), Jacomex) (O2 content ≤ 1 ppm). The path length (ℓ) was 1 cm in most cases (the actual ℓ is always indicated in the legends of the figures). The concentrations of the ligands and complexes were between 40 and 200 µM, and 0.2 M KNO3 for the organometallic complexes or 0.1 M KCl for the Fe(II/III), Cu(II), and Zn(II) complexes were used to adjust the constant ionic strength. For HSA containing samples, complex concentrations were 50 µM, and 0.5, and 2 equiv. biomolecules were added for kinetic studies, respectively. For HSA model containing samples, complex concentrations were 50 µM, and the model concentrations were 0–150 µM and 0–500 µM, respectively, and the pH was 7.4 (PBS’). Spectra were always background and baseline corrected. The computer program HypSpec was used to obtain stability constants. Hydrolysis constants of the Fe(III), Fe(II), RuCym, and RhCp* species were included in the speciation models (see Table S4 with the data taken from References).
The Bruker Avance III HD Ascend 500 Plus instrument (Billerica, MA, USA) was used for NMR studies. ^1H NMR spectroscopic measurements were carried out with a WATERGATE water suppression pulse scheme in the presence of 10% (v/v) D2O/H2O in most cases. DSS internal standard was added to samples to obtain reference peaks. ^1H NMR titrations were carried out for the ligand alone, and for the organometallic complexes in the presence of 0.2 M KNO3. With the AHA and FHA model peptides, the measurements were performed at pH 7.4 (PBS’) at 0.5 or 1 mM metal complex concentrations, and 1:1, 1:2 or 2:1 peptide-to-metal complex ratios were applied. NMR titrations were also performed for the Zn(II)-ligand systems using 0.1 M KCl ionic strength. […]

[2] = Formation constants of Cu(II) complexes by UV-vis spectrophotometric titrations; assay type: physicochemical; settings: I = 0.1 M KCl, 25.0 °C
Description: as §1

SMILES | time to reach equilibrium with HSA (HSA) | pKa ([1]; 0.10 M KCl, UV-vis, I = 0.10 M KCl, cligand 40 μM, read-out: pKa (NProH+)) | pKa ([1]; 0.10 M KCl, UV-vis, I = 0.10 M KCl, cligand 40 μM, read-out: pKa (OH)) | pKa ([1]; 0.20 M KNO3, 1H NMR, I = 0.20 M KNO3, cligand 1000 μM, read-out: pKa (NProH+)) | pKa ([1]; 0.20 M KNO3, 1H NMR, I = 0.20 M KNO3, cligand 1000 μM, read-out: pKa (OH)) | pKa ([1]; 0.20 M KNO3, UV-vis, I = 0.20 M KNO3, cligand 40 μM, read-out: pKa (NProH+)) | pKa ([1]; 0.20 M KNO3, UV-vis, I = 0.20 M KNO3, cligand 40 μM, read-out: pKa (OH)) | fraction of H2L ([1]; pH 5.5) | fraction of HL− ([1]; pH 5.5) | pKa ([1]; water, 0.20 M KNO3, pH-potentiometry, I = 0.20 M KNO3, cligand 1700 μM, read-out: pKa (NProH+)) | pKa ([1]; water, 0.20 M KNO3, pH-potentiometry, I = 0.20 M KNO3, cligand 1700 μM, read-out: pKa (OH)) | logβ [M(HL)2] [2] | logβ [M(HL)(L)] [2] | logβ [M(HL)] [2] | logβ [M(L)2] [2] | logβ [M(L)] [2]
CC1=C(C)[C](C)([Rh]([Cl])[O]c2c(C[NH+]3CCC[C@H]3C(=O)O)cc([N+](=O)[O-])c3cccnc23)C(C)=C1C.[Cl-] [RhCp*-HQNO2-L-Pro, [RhCp*(HQNO2-L-Pro)Cl]Cl] | ≤ 30 min |  |  |  |  |  |  |  |  |  |  |  |  |  |  | 
O=C(O)[C@@H]1CCCN1Cc1cc([N+](=O)[O-])c2cccnc2c1O [HQNO2-L-Pro, (2S)-1-((8-hydroxy-5-nitroquinolin-7-yl)methyl)pyrrolidin-1-ium-2-carboxylate] |  | 10.75 ± 0.03 | 5.43 ± 0.03 | > 10.5 | 5.56 ± 0.03 | 10.78 ± 0.03 | 5.5 ± 0.03 | 47% | 53% | 10.68 ± 0.07 | 5.57 ± 0.09 | 38.60 ± 0.03 | 31.75 ± 0.03 | 19.40 ± 0.03 | 22.99 ± 0.03 | 14.45 ± 0.03
